The text below walks through data of patent publication US20230313199A1, “TARGET FOR MODULATING BODY MASS” (Massachusetts Institute of Technology, priority 2020, published 2023).

One assay has as its target T1, HP motif peptide (Homo sapiens, UniProt Q9UPI3).
T1 construct: a synthetic 14-amino acid HP motif peptide; made in house; host or cells: chemical solid-phase synthesis (Koch Institute Biopolymers & Proteomics Core)
Briefly: Heme absorbance-shift assay with wild-type HP motif peptide. The format is binding. The note with it: 100 μM heme, various concentrations of HP motif peptide. The method, then:
(§1) Peptide synthesis. Wild-type HP motif peptide (HPSALAQPSGLAHP) and mutant HP motif peptide (APSALAQPSGLAAP) were synthesized using solid-phase synthesis and purified using HPLC by the Biopolymers & Proteomics Core at the Koch Institute for Integrative Cancer Research.
(§2) Heme absorbance-shift assay. Hemin was prepared fresh before each experiment. Approximately 20 mg of hemin (Sigma) was placed in a fresh tube and resuspended with 1 mL of DMSO. The hemin solution was slowly diluted while mixing with 1 mL of 2× buffer C (25 mM HEPES-NaOH pH 7.8, 10 mM NaCl), and aggregated hemin was eliminated by passing the solution through a 0.2 μm filter unit. Hemin concentration was determined by diluting the filtered solution with 1× buffer C 1:100 and using the extinction coefficient of 58,400 cm^−1M^−1 at 385 nm. For each reaction, the 200 μL reaction mix containing 100 μM hemin, 25 mM HEPES-NaOH pH 7.8, 10 mM NaCl, and various concentrations of wild-type or mutant NTD protein, was placed in a transparent 96-well plate. Absorbance intensity was measured using Tecan Infinite M200 Pro microplate reader, between 330 and 550 nm using 5 nm steps. The absorbance intensity for dissolved hemin was subtracted from absorbance intensity from hemin incubated with various concentrations of protein.

The subject of a further assay is mutant HP motif peptide. Kind of assay: Heme absorbance-shift assay with mutant HP motif peptide. The format is binding. The note with it: both histidine residues in the HP motif peptide mutated to alanine. As to the method:
as §1, §2

For assay [1], the target named is T2, endogenous MFSD7C and ATP5h (Mus musculus, UniProt Q91X85).
T2 construct: Co-IP and immunoblotting analysis of endogenous MFSD7C with ATP5h, SERCA2b and HMOX1 in bone marrow-derived macrophages; endogenous in cells; host or cells: bone marrow-derived macrophages from Mfsd7c fl/fl C57BL/6 mice
Kind of assay: Co-IP of endogenous MFSD7C and ATP5h in bone marrow-derived macrophages. In kind it is cell-based. Conditions: heme treatment. The method, then:
(§3) NTD was incubated with heme and run on Superdex 75 gel filtration column. The flow through was measured for absorbance at 230 nm (gray), 380 nm (blue), and 415 nm (green). Absorbance intensity was normalized to maximum value. […] Heme (100 μM) absorption was set to zero. […] Wildtype (WT) and mutant (Mut) peptide sequences are shown. […] Shown are representative data from five separate experiments. […] Shown are immunoblots of MFSD7C, ATP5h, SERCA2b, and HMOX1 on whole lysates or immunoblots of MFSD7C on anti-ATP5h, anti-SERCA2b and anti-HMOX1 immunoprecipitates. Representative data from one from three experiments are shown. […] Shown are representative data from three separate experiments. WCE: whole cell extract, Sup: supernatant, Mito: 10,000 g mitochondrial fraction. […] THP-1 cells were stained with MitoTracker (green), fixed and permeabilized, and then stained with rabbit polyclonal antibody specific for the C-terminus of MFSD7C, followed with Alexa Fluor® 594-labelled goat anti-rabbit antibody (red). Nuclei were labeled using DAPI (blue). […]
(§4) Differentiation of bone marrow-derived macrophage (BMDM). […] Cells were resuspended in DMEM media containing 10% FBS, 2 mM L-glutamine, 2 mM pyruvate, non-essential amino acids (100 μM each), 0.55 mM 2-mercaptoethanol, penicillin/streptomycin), passed through a 40 μm Falcon cell strainer (VWR) to remove large aggregates, and counted. […]

Assay [2] has as its target T3, endogenous MFSD7C and HMOX1 (Mus musculus, UniProt Q91X85).
T3 construct: Co-IP and immunoblotting analysis of endogenous MFSD7C with ATP5h, SERCA2b and HMOX1 in bone marrow-derived macrophages; endogenous in cells; host or cells: bone marrow-derived macrophages from Mfsd7c fl/fl C57BL/6 mice
Kind of assay: Co-IP of endogenous MFSD7C and HMOX1 in bone marrow-derived macrophages. In kind it is cell-based. The note with it: heme treatment. The method, then:
as §3, §4

The test system of the next assay is 4B8^FL cells. Briefly: FPT intensity in 4B8 cells complemented with full length MFSD7C. The format is cell-based, human. Conditions: 40 μM heme 1 hour. The method, then: FIGS. 4A-4H show NTD of MFSD7C mediates heme effect on mitochondrial respiration. FIGS. 4A-4C show comparison of basal OCR (FIG. 4A), maximal OCR (FIG. 4B) and ECAR (FIG. 4C) of THP-1, 4B8, and 4B8^FL and 4B8^ΔN cells treated with vehicle or heme for 1 hour (n=18 separate experiments). […] Cells were incubated with FPT for 6 hrs, washed and reseeded in poly-lysine coated glass bottom dishes. After cells attached to the glass, medium containing 40 μM heme was added. Cells in the same field were imaged immediately and again 1 hour later. Relative FPT fluorescent intensities, normalized to THP-1, from three experiments are shown. (n=3 independent experiments). […] THP-1 cells were co-cultured with 4B8, 4B8^FL, or 4B8^ΔN in FPT solution for 6 hrs, washed and reseeded in poly-lysine coated glass bottom dishes. […] THP-1, 4B8, 4B8^FL and 4B8^ΔN cells were treated with vehicle or heme for 1 hour and MMP was measured by using JC-10 Mitochondrial Membrane Potential Assay Kit followed by flow cytometry. […] Shown are representative Western blotting data (FIG. 4G) and quantification of band intensities from n=3 independent experiments (FIG. 4H). P-values were calculated using two-way ANOVA (*p<0.05, **p<0.01, ***p<0.005). […]
In the second approach, we used fluorescent polymeric thermometer (FPT), which we synthesized in-house (see above). […] Then the fluorescence intensities were determined by a flow cytometer.

T2 sequence (Q91X85 whole entry): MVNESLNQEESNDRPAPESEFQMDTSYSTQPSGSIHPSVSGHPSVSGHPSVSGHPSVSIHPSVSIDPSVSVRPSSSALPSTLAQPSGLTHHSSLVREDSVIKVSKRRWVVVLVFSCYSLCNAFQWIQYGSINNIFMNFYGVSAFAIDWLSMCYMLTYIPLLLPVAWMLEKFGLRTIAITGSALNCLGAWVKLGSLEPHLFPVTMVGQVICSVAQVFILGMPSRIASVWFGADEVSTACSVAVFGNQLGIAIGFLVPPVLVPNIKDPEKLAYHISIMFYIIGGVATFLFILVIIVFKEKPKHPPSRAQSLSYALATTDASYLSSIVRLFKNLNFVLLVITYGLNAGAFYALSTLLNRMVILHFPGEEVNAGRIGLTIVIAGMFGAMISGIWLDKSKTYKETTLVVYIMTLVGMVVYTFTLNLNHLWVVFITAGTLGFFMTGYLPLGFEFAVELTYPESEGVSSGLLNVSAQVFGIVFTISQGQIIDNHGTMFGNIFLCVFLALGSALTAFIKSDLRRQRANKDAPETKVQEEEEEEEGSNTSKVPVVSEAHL
T3 sequence (Q91X85 whole entry): as above
T3 sequence (P14901 whole entry partner): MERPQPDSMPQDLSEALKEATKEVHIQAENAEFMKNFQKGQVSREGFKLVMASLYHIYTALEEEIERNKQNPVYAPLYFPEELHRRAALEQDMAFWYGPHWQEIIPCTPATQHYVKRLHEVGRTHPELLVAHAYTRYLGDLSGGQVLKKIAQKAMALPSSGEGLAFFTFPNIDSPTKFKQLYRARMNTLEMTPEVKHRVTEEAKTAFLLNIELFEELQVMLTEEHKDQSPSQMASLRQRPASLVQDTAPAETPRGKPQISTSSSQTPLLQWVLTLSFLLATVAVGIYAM

Take `C=CC1=C(C)c2cc3[n-]c(cc4[n-]c(cc5nc(cc1n2)C(C)=C5C=C)c(C)c4CCC(=O)O)c(CCC(=O)O)c3C.[Fe+2]` [heme]: the “absorbance shift of heme (Soret band, Q band)” value on HP motif peptide is “concentration-dependent increase in Soret band and Q band peaks”. Besides, the “absorbance shift of heme” value in the assay on mutant HP motif peptide is reported as “abolished”. Also, the “interactions between endogenous MFSD7C and ATP5h (co-IP)” value in assay [1] is listed as “disrupted”. In assay [2], the “interactions between endogenous MFSD7C and HMOX1 (co-IP)” value is “enhanced”. In addition, in the assay on 4B8^FL cells, the FPT intensity entry is listed as “increased”.
